Measured values reported in US20250250283A1, “COMPOUND CAPABLE OF REGULATING AND CONTROLLING ACTIVITY OF 15-PGDH, AND PREPARATION METHOD THEREFOR” (SCINNOHUB PHARMACEUTICAL CO., LTD., priority 2022, published 2025).
Read-outs that look alike come from different tables or passages of the source.

Columns and labels:
A549 cells = experiment: Assay of intracellular PGE2 up-regulatory activity in IL-1β-stimulated A549 cells; format: cell-based; conditions: IL-1β induced, 8 h
Method: Test Example 2: Assay of Intracellular PGE2 Up-Regulatory Activity
a) A549 cells were inoculated in the 24-well plate, and after cell adhesion, IL-1β was added thereto for 16 h of stimulation to induce COX2 expression and PGE2 production. b) A solution of the compound to be tested was prepared with the culture medium and gradiently diluted to 3 concentrations of 10 nM, 300 nM and 10,000 nM or 7 concentrations of 0.64 nM, 3.2 nM, 16 nM, 80 nM, 400 nM, 2000 nM and 10,000 nM, and meanwhile the positive control group (only IL-1β was added to the cells for induction) and negative control group (only cells were added in the wells without any treatment) were set up. The cell supernatants were collected after 8 h of action, in which the positive control group was induced by IL-1β without treatment of the compounds, and the negative control group was neither stimulated by IL-1β, nor treated with the compounds. c) The PGE2 content of the samples was determined by Prostaglandin E2 Kit, and the fluorescence signal was detected by a multifunctional microplate reader (Ex/Em=337/620, 337/665).
a) A standard curve was plotted with the PGE2 standard in the Prostaglandin E2 Kit, and the PGE2 concentration was calculated by substituting with the fluorescence signal of the sample. b) The PGE2 up-regulation rate % was calculated by using the following formula: […]

15-PGDH enzyme = 15-PGDH enzyme (Homo sapiens (Human), UniProt P15428); experiment: Detection of activity of 15-PGDH (enzyme inhibition, NADH fluorescence, PGF2α/β-NAD substrates); format: biochemical
15-PGDH enzyme, sequence (P15428 whole entry): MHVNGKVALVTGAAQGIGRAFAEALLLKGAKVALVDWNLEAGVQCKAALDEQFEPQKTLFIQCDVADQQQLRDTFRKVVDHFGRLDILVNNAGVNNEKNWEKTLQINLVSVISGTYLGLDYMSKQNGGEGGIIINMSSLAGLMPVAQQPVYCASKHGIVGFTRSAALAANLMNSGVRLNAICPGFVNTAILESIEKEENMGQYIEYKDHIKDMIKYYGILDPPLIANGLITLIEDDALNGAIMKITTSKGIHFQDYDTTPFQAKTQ
Method: Test Example 1: Detection of Activity of 15-PGDH Kinase
• a. A solution of pH 7.5 containing 50 mM Tris-HCl, 0.01% Tween 20 was prepared with ultrapure water as a reaction buffer; • b. A 10 mM mother liquor of the compound to be tested was prepared with DMSO, and then the reaction buffer was used to dilute the mother liquor of the compound to be tested to obtain solution 1 of the compound to be tested at a concentration of 40,000 nM, and then the solution 1 of the compound to be tested was serially diluted into solutions 2-9 (or 2-12) of the compound to be tested at 9 (or 11) concentrations with a gradient difference of three-fold. 5 μL of each concentration of solutions of the compound to be tested was respectively taken and added into a 384-well plate as test wells; • c. 5 μL of the reaction buffer was added to the blank wells of the 384-well plate as positive control and blank control wells, respectively; • d. The reaction buffer was used to prepare a 15-PGDH protein solution at a concentration of 5 ng/μL, 5 μL of the 15-PGDH protein solution was taken and added to the test wells and positive control wells, and meanwhile 5 μL of the reaction buffer was added to the blank control wells, then the plate was centrifuged at 2000 rpm for 30 seconds; • e. The reaction buffer was used to prepare 5 mM β-NAD and 2 mM PGF2α, respectively, which were mixed at 1:1 by volume to obtain a substrate mixture, 10 μL of the substrate mixture was taken and added to the test wells, positive control wells and blank control wells to start the reaction; • f. The fluorescence signal value (Ex/Em=340/450) of each well was detected continuously by using a multifunctional microplate reader.
• a) Continuous fluorescence signal values were analyzed by using the “kinetic calculations-slope calculation method” in the PHERAstar Data analysis software to obtain the slope of each test well; • b) The inhibition rate % was calculated by using the following formula:
[formula] • c) Calculation of IC50 and plotting of inhibition rate-dose curves: IC50 values were calculated by fitting compound concentrations and corresponding inhibition rates with a nonlinear regression (dose response-variable slope) via using GraphPad Prism 6.0. The formula was shown below:
Y=Bottom+(Top−Bottom)/(1+10^((Log IC50−X)*HillSlope)), wherein X is a log value of a concentration of the compound, and Y is inhibition rate %.

[1] = inhibitory activity against 15-PGDH enzyme, class symbols, read-out: IC50

## Nc1c(C(=O)N2CCCCC2)sc2nc(-c3cnccn3)n3ccnc3c12 [Example 21]
A549 cells; compound 400 nM
  PGE2 up-regulation rate: 321%
15-PGDH enzyme; [1]
  IC50: < 3 nM

## Nc1c(C(=O)N2CCCCC2)sc2nc(-c3cccnc3)n3ccnc3c12 [Example 15]
15-PGDH enzyme; [1]
  IC50: < 3 nM

## Nc1c(C(=O)N2CCCCC2)sc2nc(-c3ccccc3)n3ccnc3c12 [Example 7]
15-PGDH enzyme; [1]
  IC50: < 3 nM

## O=C(c1cc2c(nc(-c3ccccc3)n3ccnc23)s1)N1CCCCC1 [Example 18]
15-PGDH enzyme; [1]
  IC50: 10 to 25 nM

## O=C(c1sc2nc(-c3ccccc3)n3ccnc3c2c1I)N1CCCCC1 [Example 4, (9-iodo-5-phenylimidazo[1,2-c]thieno[3,2-e]pyrimidin-8-yl)(piperidin-1-yl)methanone]
15-PGDH enzyme; [1]
  IC50: < 3 nM

## Nc1c(C(=O)N2CCC(F)(F)CC2)sc2nc(-c3ccccc3)n3ccnc3c12 [Example 8]
A549 cells; compound 16 nM
  PGE2 up-regulation rate: 483%
A549 cells; compound 80 nM
  PGE2 up-regulation rate: 520%
A549 cells; compound 400 nM
  PGE2 up-regulation rate: 770%
15-PGDH enzyme; [1]
  IC50: 3 to 10 nM

## Cc1cn2c(-c3ccccc3)nc3sc(C(=O)N4CCC(F)CC4)c(N)c3c2n1 [Example 9]
A549 cells; compound 400 nM
  PGE2 up-regulation rate: 333%
15-PGDH enzyme; [1]
  IC50: 3 to 10 nM

## Nc1c(C(=O)N2CCCCC2)sc2nc(-c3ccc4ccccc4n3)n3ccnc3c12 [Example 20]
15-PGDH enzyme; [1]
  IC50: 10 to 25 nM

## Nc1c(C(=O)N2CCCCC2)sc2nc(-c3ccncc3)n3ccnc3c12 [Example 3, (9-amino-5-(pyridin-4-yl)imidazo[1,2-c]thieno[3,2-e]pyrimidin-8-yl)(piperidin-1-yl)methanone]
15-PGDH enzyme; [1]
  IC50: < 3 nM

## COc1c(C(=O)N2CCCCC2)sc2nc(-c3ccccc3)n3ccnc3c12 [Example 6, (9-methoxy-5-phenylimidazo[1,2-c]thieno[3,2-e]pyrimidin-8-yl)(piperidin-1-yl)methanone]
15-PGDH enzyme; [1]
  IC50: 10 to 25 nM

## Cc1c(C(=O)N2CCCCC2)sc2nc(-c3ccccc3)n3ccnc3c12 [Example 13]
15-PGDH enzyme; [1]
  IC50: 3 to 10 nM

## Cn1ccc2cc(-c3nc4sc(C(=O)N5CCCCC5)c(N)c4c4nccn34)ccc2c1=O [Example 25, 6-(9-amino-8-(piperidin-1-carbonyl)imidazo[1,2-c]thieno[3,2-e]pyrimidin-5-yl)-2-methylisoquinolin-1(2H)-one]
A549 cells; compound 3.2 nM
  PGE2 up-regulation rate: 513%
A549 cells; compound 16 nM
  PGE2 up-regulation rate: 782%
A549 cells; compound 80 nM
  PGE2 up-regulation rate: 741%
15-PGDH enzyme; [1]
  IC50: < 3 nM

## O=C(c1sc2nc(-c3ccccc3)n3ccnc3c2c1C1CC1)N1CCCCC1 [Example 14]
15-PGDH enzyme; [1]
  IC50: 3 to 10 nM

## Nc1c(C(=O)N2CCC(F)CC2)sc2nc(-c3ccccc3)n3ccnc3c12 [Example 1, (9-amino-5-phenylimidazo[1,2-c]thieno[3,2-e]pyrimidin-8-yl)(4-fluoropiperidin-1-yl)methanone]
15-PGDH enzyme; [1]
  IC50: < 3 nM
15-PGDH enzyme; stated in text as bounds, read-out: IC50 value of the inhibitory activity against 15-PGDH enzyme
  IC50: < 1.5 nM

## Nc1c(C(=O)N2CCC(F)CC2)sc2c1C1=NCCN1C(c1ccccc1)=N2 [Compound 8, (9-amino-5-phenyl-2,3-dihydroimidazo[1,2-c]thieno[3,2-e]pyrimidin-8-yl)(4-fluoropiperidin-1-yl)methanone]
15-PGDH enzyme; [1]
  IC50: 10 to 25 nM

## O=C(c1sc2nc(-c3ccccc3)n3ccnc3c2c1C(F)(F)F)N1CCCCC1 [Example 12]
15-PGDH enzyme; [1]
  IC50: 3 to 10 nM

## Nc1c(C(=O)N2CCC(F)CC2)sc2nc(-c3ccccc3)n3cc(C(F)(F)F)nc3c12 [Example 2, (9-amino-5-phenyl-2-(trifluoromethyl)imidazo[1,2-c]thieno[3,2-e]pyrimidin-8-yl)(4-fluoropiperidin-1-yl)methanone]
15-PGDH enzyme; [1]
  IC50: 3 to 10 nM

## Nc1c(C(=O)N2CCCCC2)sc2nc(-c3ccccn3)n3ccnc3c12 [Example 10]
15-PGDH enzyme; [1]
  IC50: 3 to 10 nM

## Nc1c(C(=O)N2CCCC2)sc2nc(-c3ccccc3)n3ccnc3c12 [Example 17]
15-PGDH enzyme; [1]
  IC50: 25 to 50 nM

## CCN(CC)C(=O)c1sc2nc(-c3ccccc3)n3ccnc3c2c1N [Example 16]
15-PGDH enzyme; [1]
  IC50: 25 to 50 nM

## Nc1c(C(=O)N2CCCCC2)sc2nc(-c3nccs3)n3ccnc3c12 [Example 19]
15-PGDH enzyme; [1]
  IC50: 10 to 25 nM

## CC(C)c1c(C(=O)N2CCCCC2)sc2nc(-c3ccccc3)n3ccnc3c12 [Example 23, (9-isopropyl-5-phenylimidazo[1,2-c]thieno[3,2-e]pyrimidin-8-yl)(piperidin-1-yl)methanone]
15-PGDH enzyme; [1]
  IC50: 3 to 10 nM

## Nc1c(C(=O)N2CCCCC2)sc2nc(-c3ccccc3)n3cnnc3c12 [Example 5, (9-amino-5-phenylthieno[3,2-e][1,2,4]triazolo[4,3-c]pyrimidin-8-yl)(piperidin-1-yl)methanone]
15-PGDH enzyme; [1]
  IC50: 3 to 10 nM

## N#Cc1c(C(=O)N2CCCCC2)sc2nc(-c3ccccc3)n3ccnc3c12 [Example 22]
15-PGDH enzyme; [1]
  IC50: 3 to 10 nM

## CN1Cc2cc(-c3nc4sc(C(=O)N5CCCCC5)c(N)c4c4nccn34)ccc2C1=O [Example 24, 5-(9-amino-8-(piperidine-1-carbonyl)imidazo[1,2-c]thieno[3,2-e]pyrimidin-5-yl)-2-methylisoindol-1-one]
A549 cells; compound 3.2 nM
  PGE2 up-regulation rate: 568%
A549 cells; compound 16 nM
  PGE2 up-regulation rate: 461%
A549 cells; compound 80 nM
  PGE2 up-regulation rate: 473%
15-PGDH enzyme; [1]
  IC50: < 3 nM
